According to patent publication US10328093B2, “Anthracycline formulations” (CYTRX CORPORATION, priority 2012, dated 2019):

Test: IV Admixture stability in LR at approximately 2.4 mg/mL after reconstitution
Type: physicochemical
Settings: for pH drop: from zero to two hours
Procedure: To analyze DOXO-EMCH's behavior in solution, a reversed-phase (RP) HPLC method for quantitation of DOXO-EMCH and various impurities and degradation products was utilized. Samples (1.0 μL injection volume) were assayed on an HPLC system fitted with a Phenomenex Gemini C18 column 100×2.0 mm, 3 μm at a flow rate of 0.3 mL/min. The mobile phase used was an acetate/acetonitrile gradient. The degradation product EMCH could not be detected using the above HPLC method, and was therefore determined using a liquid chromatography-mass spectrometry (LC-MS) method.
IV Admixture stability studies were designed to use the reconstitution diluent found suitable in part 1 following the procedure outlined below. Briefly, to prepare an IV Admixture solution containing approximately 2.4 mg/mL DOXO-EMCH, the required volume for reconstitution was withdrawn from the IV infusion solution bag intended for final administration. The required volume for reconstitution of the respective diluent was measured and transferred into a vial of lyophilized DOXO-EMCH. The vial of DOXO-EMCH and diluent was gently swirled to dissolve the vial contents and obtain a homogeneous mixture. The reconstituted solution of drug product was inspected to ensure that the drug was completely dissolved and that no foreign matter was present. This procedure was repeated for the total number of vials required to prepare the calculated dose of DOXO-EMCH in IV infusion solution. The required volume of reconstituted DOXO-EMCH solution was then withdrawn from the drug product vials using a suitably sized syringe, and injected into the IV infution solution bag. The contents of the IV infusion solution bag were thoroughly mixed to obtain a homogeneous mixture. The IV infusion bag was then stored at room temperature and protected from light.
The IV Admixture study was performed by first removing 3 vials of 200 mg lyophilized DOXO-EMCH drug product from storage at −20° C. and allowing the vials to come to room temperature. […] Each of the vials was reconstituted as described above. The required volume of the reconstitution diluent (20 mL) was drawn into an appropriate plastic syringe using a needle and injected through the stopper of each vial. The reconstituted vial was then swirled and visually inspected for complete reconstitution to form a clear, homogeneous solution. The time required to form a clear, homogeneous solution was recorded. The required volume (20.0 mL of a 10 mg/mL constituted solution) was transferred from each reconstituted vial into the 250 mL IV Admixture solution as described above. Briefly, the required volume (20.0 mL of a 10 mg/mL constituted solution) was withdrawn using an appropriate plastic syringe and needle, the required volume of constituted drug product was transferred from each of three vials into the 250 mL IV Admixture using an appropriate plastic syringe and needle, and the contents of the IV Admixture were completely mixed to obtain a homogeneous mixture at a target concentration of approximately 2.4 mg/mL. The IV bag was weighed prior to injection of constituted drug product. […] solution, diluting with chilled HPLC method diluent to achieve a target concentration of 0.24 mg/mL, and injecting into the HPLC. Duplicate injections were made for each time point. The pH of the IV Admixture and sample prepared for HPLC analysis were also measured at each time point. The empty IV bag was weighed at study completion to calculate the actual IV Admixture solution volume in each bag.
The reconstituted solution was evaluated for color, clarity, and absence of insoluble material in the vial after every 30 seconds of mixing. Following addition of the reconstituted drug product solution to the IV bag, the resulting IV Admixture was evaluated for color, clarity, and absence of any insoluble material immediately after mixing and at each analytical time point. The amount (area %) of the degradation product doxorubicin was determined at each time point. […]

[1] = reconstituted in 50:50 ethanol:water, diluted in LR, two hour time point, average of two studies
[2] = reconstituted in LR, diluted in LR to ~2.4 mg/mL, Study #1, ambient temperature, 0 min
[3] = reconstituted in LR, diluted in LR to ~2.4 mg/mL, Study #1, ambient temperature, 30 min
[4] = reconstituted in LR, diluted in LR to ~2.4 mg/mL, Study #1, ambient temperature, 60 min
[5] = reconstituted in LR, diluted in LR to ~2.4 mg/mL, Study #1, ambient temperature, 120 min
[6] = reconstituted in LR, diluted in LR to ~2.4 mg/mL, Study #1, ambient temperature, 150 min
[7] = reconstituted in LR, diluted in LR to ~2.4 mg/mL, Study #1, ambient temperature, 240 min
[8] = reconstituted in LR, diluted in LR to ~2.4 mg/mL, Study #2, ambient temperature, 0 min
[9] = reconstituted in LR, diluted in LR to ~2.4 mg/mL, Study #2, ambient temperature, 30 min
[10] = reconstituted in LR, diluted in LR to ~2.4 mg/mL, Study #2, ambient temperature, 60 min
[11] = reconstituted in LR, diluted in LR to ~2.4 mg/mL, Study #2, ambient temperature, 90 min
[12] = reconstituted in LR, diluted in LR to ~2.4 mg/mL, Study #2, ambient temperature, 120 min
[13] = reconstituted in LR, diluted in LR to ~2.4 mg/mL, Study #2, ambient temperature, 150 min
[14] = reconstituted in SWFI (~10 mg/mL), diluted in LR IV bag to ~2.4 mg/mL, ambient temperature, 30 min
[15] = reconstituted in SWFI (~10 mg/mL), diluted in LR IV bag to ~2.4 mg/mL, ambient temperature, 60 min
[16] = reconstituted in SWFI (~10 mg/mL), diluted in LR IV bag to ~2.4 mg/mL, ambient temperature, 150 min
[17] = reconstituted in SWFI (~10 mg/mL), diluted in LR IV bag to ~2.4 mg/mL, ambient temperature, 240 min
[18] = reconstituted in ethanol:water, diluted in LR to ~2.4 mg/mL, Study #1, ambient temperature, 0 min
[19] = reconstituted in ethanol:water, diluted in LR to ~2.4 mg/mL, Study #1, ambient temperature, 30 min
[20] = reconstituted in ethanol:water, diluted in LR to ~2.4 mg/mL, Study #1, ambient temperature, 60 min
[21] = reconstituted in ethanol:water, diluted in LR to ~2.4 mg/mL, Study #1, ambient temperature, 90 min
[22] = reconstituted in ethanol:water, diluted in LR to ~2.4 mg/mL, Study #1, ambient temperature, 120 min
[23] = reconstituted in ethanol:water, diluted in LR to ~2.4 mg/mL, Study #1, ambient temperature, 150 min
[24] = reconstituted in ethanol:water, diluted in LR to ~2.4 mg/mL, Study #2, ambient temperature, 0 min
[25] = reconstituted in ethanol:water, diluted in LR to ~2.4 mg/mL, Study #2, ambient temperature, 30 min
[26] = reconstituted in ethanol:water, diluted in LR to ~2.4 mg/mL, Study #2, ambient temperature, 60 min
[27] = reconstituted in ethanol:water, diluted in LR to ~2.4 mg/mL, Study #2, ambient temperature, 120 min
[28] = reconstituted in ethanol:water, diluted in LR to ~2.4 mg/mL, Study #2, ambient temperature, 150 min
[29] = reconstituted in ethanol:water, diluted in LR to ~2.4 mg/mL, Study #2, ambient temperature, 240 min

For `COc1cccc2c1C(=O)c1c(O)c3c(c(O)c1C2=O)C[C@@](O)(/C(CO)=N/NC(=O)CCCCCN1C(=O)C=CC1=O)C[C@@H]3O[C@H]1C[C@H](N)[C@H](O)[C@H](C)O1.Cl` [DOXO-EMCH], the “stability of IV solutions in LR” value (drug product reconstituted in any of SWFI, LR, 50:50 ethanol/water, based on accumulation of doxorubicin) was “relatively stable for two hours or more”, the pH drop (reconstituted in 50:50 ethanol:water, diluted in LR, two studies) was 0.3-0.4 units and the average doxorubicin content [1] was 2.0%. The “average pH” value [1] was 5.9, the Doxorubicin [2] was 1.10 Area % and the pH [2] was 5.99. It also gave a Doxorubicin [3] of 1.28 Area %, a pH [3] of 5.87 and a Doxorubicin [4] of 1.74 Area %. For the same compound, the pH [4] was 5.85, the Doxorubicin [5] was 2.24 Area % and the pH [5] was 5.76. It also gave a Doxorubicin [6] of 2.93 Area %, a pH [6] of 5.75 and a Doxorubicin [7] of 3.80 Area %. For the same compound, the pH [7] was 5.67, the Doxorubicin [8] was 1.03 Area % and the pH [8] was 6.10. It also gave a Doxorubicin [9] of 1.04 Area %, a pH [9] of 5.98 and a Doxorubicin [10] of 1.68 Area %. For the same compound, the pH [10] was 5.94, the Doxorubicin [11] was 1.67 Area % and the pH [11] was 5.89. For the same compound, the Doxorubicin [12] was 2.53 Area %, the pH [12] was 5.79 and the Doxorubicin [13] was 2.50 Area %. For the same compound, the pH [13] was 5.77, the pH drop (reconstituted in LR, diluted in LR, two studies) was 0.2-0.3 units and the “average pH” value (reconstituted in LR, diluted in LR, two hour time point, average of two studies) was 5.8. For the same compound, the Doxorubicin (reconstituted in SWFI (~10 mg/mL), diluted in LR IV bag to ~2.4 mg/mL, ambient temperature, 0 min) was 1.23 Area %, the Doxorubicin [14] was 1.40 Area % and the pH [14] was 5.98. For the same compound, the Doxorubicin [15] was 1.88 Area %, the pH [15] was 5.84 and the Doxorubicin [16] was 3.23 Area %. The pH [16] was 5.73, the Doxorubicin [17] was 4.23 Area % and the pH [17] was 5.62. The pH drop (reconstituted in SWFI, diluted in LR) was “about 0.4 units”, the Doxorubicin [18] was 1.0 Area % and the pH [18] was 6.22. For the same compound, the Doxorubicin [19] was 1.1 Area %, the pH [19] was 6.04 and the Doxorubicin [20] was 1.3 Area %. For the same compound, the pH [20] was 5.95, the Doxorubicin [21] was 1.7 Area % and the pH [21] was 5.89. The Doxorubicin [22] was 1.9 Area %, the pH [22] was 5.83 and the Doxorubicin [23] was 2.3 Area %. For the same compound, the pH [23] was 5.82, the Doxorubicin [24] was 1.1 Area % and the pH [24] was 6.19. For the same compound, the Doxorubicin [25] was 1.3 Area %, the pH [25] was 6.05 and the Doxorubicin [26] was 1.5 Area %. It also gave a pH [26] of 5.99, a Doxorubicin [27] of 2.1 Area % and a pH [27] of 5.89. It also gave a Doxorubicin [28] of 2.3 Area %, a pH [28] of 5.87 and a Doxorubicin [29] of 3.4 Area %. The pH [29] was 5.80.
